Patent US20250099420A1, “SMALL MOLECULE MODULATORS OF GPR139 COMPLEX” (University of Florida Research Foundation, Incorporated, priority 2022, published 2025)
Read-outs that look alike come from different tables or passages of the source.

Assays:
parental HEK cells = test: HEK parental Agonist Counterscreen Assay (non-transfected cells); assay type: cell-based; settings: for Averaged Max % Response (±St. Dev.): activity relative to known control
Text: The high control for the agonist counterscreen was Forskolin not acetylcholine.

GPR139 = target: T1, GPR139 (Homo sapiens, UniProt Q6DWJ6); test: GPR139 Agonist titration / agonist counterscreen assay (calcium detection, HEK-GPR139 cells); assay type: cell-based; design: expressed in transfected cells; host or cells: HEK Aequorin cells, Maxcyte transient transfection; settings: GPR139 Agonist Activity; for Averaged Max % Response (±St. Dev.): activity relative to known control; for EC50: read-out: EC50
T1 sequence (Q6DWJ6 1-353): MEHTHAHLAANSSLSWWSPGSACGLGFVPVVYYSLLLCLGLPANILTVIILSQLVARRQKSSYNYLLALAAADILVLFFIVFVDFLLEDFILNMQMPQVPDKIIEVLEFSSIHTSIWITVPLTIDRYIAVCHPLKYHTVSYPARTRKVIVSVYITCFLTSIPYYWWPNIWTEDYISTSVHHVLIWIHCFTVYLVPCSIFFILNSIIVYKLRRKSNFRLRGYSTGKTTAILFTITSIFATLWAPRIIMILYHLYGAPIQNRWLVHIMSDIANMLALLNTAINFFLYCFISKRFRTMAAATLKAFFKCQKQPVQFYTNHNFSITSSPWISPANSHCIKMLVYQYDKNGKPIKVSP
Description: GPR activity was assessed using a calcium detection assay. […] Negative control samples were treated with DMSO. […] Intracellular calcium was measured using Calcium 5.

[1] = Homo sapiens, HEK293, HEK Agonist Activity section of Table 4 (parental HEK counterscreen)
[2] = values printed in E-notation without unit
[3] = HEK Agonist Activity section of Table 4 (parental HEK counterscreen)

SMILES | Lipophilic Efficiency (logD) (parental HEK cells; HEK Agonist Activity section) | Lipophilic Efficiency (logP) (parental HEK cells; HEK Agonist Activity section) | Averaged Max % Response (±St. Dev.) (GPR139) [%] | Lipophilic Efficiency (logD) (GPR139; based on logD) | Lipophilic Efficiency (logP) (GPR139; based on logP) | Hill Slope (GPR139; fitted dose-response curve) | Efficiency Ligand (GPR139; ligand efficiency) | EC50 (GPR139; [2]) [nM] | Efficiency Ligand (GPR139) | Hill Slope (GPR139) | Lipophilic Efficiency (logD) (GPR139) | Lipophilic Efficiency (logP) (GPR139) | EC50 (GPR139; HEK-GPR139 cells) [nM] | Averaged Max % Response (±St. Dev.) (parental HEK cells; HEK Agonist Activity section) [%] | EC50 (parental HEK cells; [1]) [nM] | also measured
O=C(CN1CCN(Cc2ccccc2F)C1=O)NCCc1ccc(Cl)cc1 [SR-01000125584] | 2.11 | 2.11 | 103.06 ± 30.95 | 4.59 | 4.59 | 0.81 | 0.38 | 47.1 | – | – | – | – | – | 0.37 ± 17.31 | > 14100 | –
CN(C)CCOc1cc(NC(=O)C2COc3ccccc3C2)ccc1-c1cn[nH]c1.O=C(O)C(F)(F)F.O=C(O)C(F)(F)F (stereo not shown) [SR-00000004123] | 3.26 | 1.93 | 79.85 ± 11.38 | – | – | – | – | – | 0.28 | 0.37 | 4.48 | 3.15 | 847 | 3.68 ± 4.29 | – | EC50 (parental HEK cells; [3]): > 14100 nM
Cc1cccc(COc2coc(COc3nccn3C)cc2=O)c1 [SR-01000916033] | 2.68 | 2.68 | 104.22 ± 8.56 | 5.04 | 5.04 | 0.34 | 0.42 | 61.9 | – | – | – | – | – | 25.93 ± 6.51 | > 14100 | –
CCOC(=O)c1ccc(CSc2nnc(N)s2)cc1 [SR-01000273754] | 1.95 | 1.95 | 86.25 ± 6.17 | 4.03 | 4.03 | 0.89 | 0.51 | 118 | – | – | – | – | – | 2.38 ± 11.60 | – | EC50 (parental HEK cells; [3]): > 14100 nM
Cc1nn(CC(=O)NC2CCCc3ccccc32)c(=O)c2c1sc1ccccc12 (stereo not shown) [SR-01000139982] | 1.18 | 1.18 | 89.89 ± 26.17 | – | – | – | – | – | 0.29 | 0.79 | 2.38 | 2.38 | 890 | 9.26 ± 7.81 | > 14100 | –
Cc1cccc(C(=O)NNC(=O)C(C)Oc2ccc(O)cc2O)c1 (stereo not shown) [SR-01000410744] | – | – | 114.68 ± 11.76 | 5.27 | 5.24 | – | 0.54 | < 0.517 | – | – | – | – | – | – | – | Lipophilic Efficiency (logD) (parental HEK cells; HEK Agonist Activity): 0.98; Lipophilic Efficiency (logP) (parental HEK cells; HEK Agonist Activity): 0.95; Averaged Max % Response (±St. Dev.) (parental HEK cells; HEK Agonist Activity): 17.10 ± 14.93%; EC50 (parental HEK cells; Homo sapiens, HEK293, HEK Agonist Activity, parental non-transfected HEK cells): > 10200 nM
COc1ccccc1CN1CCNC(=O)C1CC(=O)NCCCN1CCc2ccccc21 (stereo not shown) [SR-01000176838] | 3.04 | 3.02 | 83.30 ± 1.40 | – | – | – | – | – | 0.27 | 0.77 | 4.34 | 4.32 | 697 | −8.12 ± 1.57 | > 14100 | –
COc1ccc(NC(=O)NC(O)(O)c2cccc(C(C)=O)c2)cc1 [SR-01000428888] | 0.38 | 0.38 | 105.90 ± 33.97 | – | – | – | – | – | 0.38 | 0.88 | 2.10 | 2.10 | 313 | −2.45 ± 12.32 | > 16400 | –
CN(CCC(=O)NCC1Cc2cccc(-c3ccccn3)c2O1)C1CCS(=O)(=O)C1 (stereo not shown) [SR-01000193031] | 4.36 | 4.19 | 95.01 ± 4.20 | – | – | – | – | – | 0.30 | 0.62 | 5.90 | 5.73 | 406 | 25.60 ± 3.67 | > 14100 | –

Now from value to compound, other results behind:

Lipophilic Efficiency (logD) (parental HEK cells; HEK Agonist Activity section) | Lipophilic Efficiency (logP) (parental HEK cells; HEK Agonist Activity section) | Averaged Max % Response (±St. Dev.) (GPR139) [%] | Lipophilic Efficiency (logD) (GPR139; based on logD) | Lipophilic Efficiency (logP) (GPR139; based on logP) | Hill Slope (GPR139; fitted dose-response curve) | Efficiency Ligand (GPR139; ligand efficiency) | EC50 (GPR139; [2]) [nM] | Efficiency Ligand (GPR139) | Hill Slope (GPR139) | Lipophilic Efficiency (logD) (GPR139) | Lipophilic Efficiency (logP) (GPR139) | EC50 (GPR139; HEK-GPR139 cells) [nM] | SMILES | Averaged Max % Response (±St. Dev.) (parental HEK cells; HEK Agonist Activity section) [%] | EC50 (parental HEK cells; [1]) [nM] | also measured
2.60 | 2.54 | 97.49 ± 3.70 | 4.59 | 4.53 | 0.88 | 0.42 | 143 | – | – | – | – | – | CC(Oc1ccc(Cl)cc1Cl)C(=O)NNC(=O)c1ccncc1 (stereo not shown) [SR-01000319951] | 7.14 ± 13.31 | > 14100 | –
1.25 | 1.25 | 98.09 ± 3.30 | 3.69 | 3.69 | 0.31 | 0.41 | 51 | – | – | – | – | – | COc1ccccc1-c1nnc(NC(=O)Cc2ccc(C)cc2C)o1 [SR-01000915644] | −2.94 ± 0.56 | > 14100 | –
1.69 | 1.69 | 81.20 ± 9.68 | – | – | – | – | – | 0.28 | 0.84 | 2.73 | 2.73 | 1300 | CCOC(=O)C1CCN(C(=O)C2CC(Cc3cccc4ccccc34)=NO2)CC1 (stereo not shown) [SR-01000185621] | −9.62 ± 7.28 | > 14100 | –
1.51 | 1.51 | 79.66 ± 15.90 | – | – | – | – | – | 0.30 | 0.73 | 2.72 | 2.72 | – | Cc1ccc(CN2CCN(CC(=O)NCCc3ccc(Cl)cc3)C2=O)c(Cl)c1 [SR-01000125626] | −27.02 ± 6.51 | > 14100 | –
1.09 | 1.08 | 96.54 ± 7.56 | 3.35 | 3.34 | 0.79 | 0.38 | 78.1 | – | – | – | – | – | O=C(CN1CCCc2ccccc21)NNC(=O)Nc1ccc(Cl)c(Cl)c1 [SR-01000029575] | 7.49 ± 5.72 | > 14300 | –
2.29 | 2.29 | 111.88 ± 11.27 | 4.59 | 4.59 | 0.56 | 0.45 | 71.8 | – | – | – | – | – | O=C(CSc1ccc(Cl)cc1)Nc1nnc(-c2ccco2)o1 [SR-01000021433] | 27.04 ± 4.04 | > 14300 | –
– | – | 126.00 ± 7.94 | 6.03 | 6.03 | – | 0.44 | > 0.779 | – | – | – | – | – | Cn1c(CC(=O)NNC(=O)CSc2ccc3ccccc3c2)nc2ccccc21 [SR-01000068729] | – | – | Lipophilic Efficiency (logD) (parental HEK cells; HEK Agonist Activity): 1.73; Lipophilic Efficiency (logP) (parental HEK cells; HEK Agonist Activity): 1.73; Averaged Max % Response (±St. Dev.) (parental HEK cells; HEK Agonist Activity): −3.41 ± 1.08%; EC50 (parental HEK cells; HEK Agonist Activity, parental non-transfected HEK cells): > 15300 nM
